Results taken from patent US10905123B2, “Herbicidal compounds” (Syngenta Participations AG, priority 2015, dated 2021).

Assays:
Type in all cases: in vivo
Settings in all cases: evaluated after 13 days
[1] = tested on: Alopecurus myosuroides (ALOMY); assay: B1 pre-emergence herbicidal activity
Procedure: (§1) Seeds of a variety of test species were sown in standard soil in pots: Triticum aestivium (TRZAW), Oryza sativa (ORYSA), Avena fatua (AVEFA), Alopecurus myosuroides (ALOMY), Echinochloa crus-galli (ECHCG), Lolium perenne (LOLPE). After cultivation for one day (pre-emergence) under controlled conditions in a glasshouse (at 24/16° C., day/night; 14 hours light; 65% humidity), the plants were sprayed with an aqueous spray solution derived from the formulation of the technical active ingredient in acetone/water (50:50) solution containing 0.5% Tween 20 (polyoxyethelyene sorbitan monolaurate, CAS RN 9005-64-5). The test plants were then grown in a glasshouse under controlled conditions (at 24/16° C., day/night; 14 hours light; 65% humidity) and watered twice daily. After 13 days, the test was evaluated (5=total damage to plant; 0=no damage to plant).

Avena fatua (AVEFA) [2] = assay: B1 pre-emergence herbicidal activity
Procedure: as §1

[3] = tested on: Echinochloa crus-galli (ECHCG); assay: B1 pre-emergence herbicidal activity
Procedure: as §1

Lolium perenne (LOLPE) [4] = assay: B1 pre-emergence herbicidal activity
Procedure: as §1

Oryza sativa (ORYSA) [5] = assay: B1 pre-emergence herbicidal activity
Procedure: as §1

[6] = tested on: Triticum aestivium (TRZAW); assay: B1 pre-emergence herbicidal activity
Procedure: as §1

[7] = tested on: Alopecurus myosuroides (ALOMY); assay: B2 post-emergence herbicidal activity
Procedure: (§2) Seeds of a variety of test species were sown in standard soil in pots: Triticum aestivium (TRZAW), Oryza sativa (ORYSA), Avena fatua (AVEFA), Alopecurus myosuroides (ALOMY), Echinochloa crus-galli (ECHCG), Lolium perenne (LOLPE). After 8 days cultivation (post-emergence) under controlled conditions in a glasshouse (at 24/16° C., day/night; 14 hours light; 65% humidity), the plants were sprayed with an aqueous spray solution derived from the formulation of the technical active ingredient in acetone/water (50:50) solution containing 0.5% Tween 20 (polyoxyethelyene sorbitan monolaurate, CAS RN 9005-64-5). The test plants were then grown in a glasshouse under controlled conditions (at 24/16° C., day/night; 14 hours light; 65% humidity) and watered twice daily. After 13 days, the test was evaluated (5=total damage to plant; 0=no damage to plant).

Avena fatua (AVEFA) [8] = assay: B2 post-emergence herbicidal activity
Procedure: as §2

[9] = tested on: Echinochloa crus-galli (ECHCG); assay: B2 post-emergence herbicidal activity
Procedure: as §2

Lolium perenne (LOLPE) [10] = assay: B2 post-emergence herbicidal activity
Procedure: as §2

Oryza sativa (ORYSA) [11] = assay: B2 post-emergence herbicidal activity
Procedure: as §2

[12] = tested on: Triticum aestivium (TRZAW); assay: B2 post-emergence herbicidal activity
Procedure: as §2

SMILES | Control of ALOMY after pre-emergence application (damage score 0-5) ([1]; Rate 1000 g/ha) | Control of AVEFA after pre-emergence application (damage score 0-5) (Avena fatua (AVEFA) [2]; Rate 1000 g/ha) | Control of ECHCG after pre-emergence application (damage score 0-5) ([3]; Rate 1000 g/ha) | Control of LOLPE after pre-emergence application (damage score 0-5) (Lolium perenne (LOLPE) [4]; Rate 1000 g/ha) | Control of ORYSA after pre-emergence application (damage score 0-5) (Oryza sativa (ORYSA) [5]; Rate 1000 g/ha) | Control of TRZAW after pre-emergence application (damage score 0-5) ([6]; Rate 1000 g/ha) | Control of ALOMY after post-emergence application (damage score 0-5) ([7]; Rate 1000 g/ha) | Control of AVEFA after post-emergence application (damage score 0-5) (Avena fatua (AVEFA) [8]; Rate 1000 g/ha) | Control of ECHCG after post-emergence application (damage score 0-5) ([9]; Rate 1000 g/ha) | Control of LOLPE after post-emergence application (damage score 0-5) (Lolium perenne (LOLPE) [10]; Rate 1000 g/ha) | Control of ORYSA after post-emergence application (damage score 0-5) (Oryza sativa (ORYSA) [11]; Rate 1000 g/ha) | Control of TRZAW after post-emergence application (damage score 0-5) ([12]; Rate 1000 g/ha) | other results
CN(C(=O)OC(C)(C)C)c1cc(-c2cccnc2)nn1C [Compound A1, tert-butyl N-methyl-N-[2-methyl-5-(3-pyridyl)pyrazol-3-yl]carbamate] | 0 | 1 | 3 | 1 | 1 | 0 | 3 | 1 | 5 | 1 | 4 | 1 | 
Cc1nn(-c2cncnc2)cc1NC(=O)OC(C)(C)C [Compound A3, tert-butyl N-(3-methyl-1-pyrimidin-5-yl-pyrazol-4-yl)carbamate] |  |  |  |  |  |  |  |  |  |  |  |  | Control of ALOMY after pre-emergence application (damage score 0-5) ([1]; Rate 500 g/ha): 0; Control of AVEFA after pre-emergence application (damage score 0-5) (Avena fatua (AVEFA) [2]; Rate 500 g/ha): 0; Control of ECHCG after pre-emergence application (damage score 0-5) ([3]; Rate 500 g/ha): 4; Control of LOLPE after pre-emergence application (damage score 0-5) (Lolium perenne (LOLPE) [4]; Rate 500 g/ha): 0; Control of ORYSA after pre-emergence application (damage score 0-5) (Oryza sativa (ORYSA) [5]; Rate 500 g/ha): 1; Control of TRZAW after pre-emergence application (damage score 0-5) ([6]; Rate 500 g/ha): 1; Control of ALOMY after post-emergence application (damage score 0-5) ([7]; Rate 500 g/ha): 2; Control of AVEFA after post-emergence application (damage score 0-5) (Avena fatua (AVEFA) [8]; Rate 500 g/ha): 4; Control of ECHCG after post-emergence application (damage score 0-5) ([9]; Rate 500 g/ha): 5; Control of LOLPE after post-emergence application (damage score 0-5) (Lolium perenne (LOLPE) [10]; Rate 500 g/ha): 2; Control of ORYSA after post-emergence application (damage score 0-5) (Oryza sativa (ORYSA) [11]; Rate 500 g/ha): 1; Control of TRZAW after post-emergence application (damage score 0-5) ([12]; Rate 500 g/ha): 1
CC(C)(C)OC(=O)Nc1cn(-c2cncnc2)nc1C(F)(F)F [Compound A4] | 0 | 1 | 4 | 0 | 1 | 0 | 1 | 1 | 5 | 1 | 2 | 1 | 
Cc1nn(-c2cncnc2)cc1N(C)C(=O)OC(C)(C)C [Compound A5, tert-butyl N-methyl-N-(3-methyl-1-pyrimidin-5-yl-pyrazol-4-yl)carbamate] | 1 | 4 | 5 | 1 | 2 | 4 | 4 | 0 | 5 | 2 | 5 | 2 | 
CN(C(=O)OC(C)(C)C)c1cn(-c2cncnc2)nc1C(F)(F)F [Compound A6] | 0 | 3 | 5 | 1 | 2 | 0 | 3 | 1 | 5 | 1 | 5 | 1 | 
CC(C)(C)OC(=O)Nc1cn(-c2cccnc2)nc1C(F)(F)F [Compound A7] |  |  |  |  |  |  |  |  |  |  |  |  | Control of ALOMY after pre-emergence application (damage score 0-5) ([1]; Rate 500 g/ha): 0; Control of AVEFA after pre-emergence application (damage score 0-5) (Avena fatua (AVEFA) [2]; Rate 500 g/ha): 0; Control of ECHCG after pre-emergence application (damage score 0-5) ([3]; Rate 500 g/ha): 2; Control of LOLPE after pre-emergence application (damage score 0-5) (Lolium perenne (LOLPE) [4]; Rate 500 g/ha): 0; Control of ORYSA after pre-emergence application (damage score 0-5) (Oryza sativa (ORYSA) [5]; Rate 500 g/ha): 1; Control of TRZAW after pre-emergence application (damage score 0-5) ([6]; Rate 500 g/ha): 0; Control of ALOMY after post-emergence application (damage score 0-5) ([7]; Rate 500 g/ha): 2; Control of AVEFA after post-emergence application (damage score 0-5) (Avena fatua (AVEFA) [8]; Rate 500 g/ha): 2; Control of ECHCG after post-emergence application (damage score 0-5) ([9]; Rate 500 g/ha): 4; Control of LOLPE after post-emergence application (damage score 0-5) (Lolium perenne (LOLPE) [10]; Rate 500 g/ha): 1; Control of ORYSA after post-emergence application (damage score 0-5) (Oryza sativa (ORYSA) [11]; Rate 500 g/ha): 1; Control of TRZAW after post-emergence application (damage score 0-5) ([12]; Rate 500 g/ha): 0
Cc1nn(-c2cncc(F)c2)cc1N(C)C(=O)OC(C)(C)C [Compound A10] | 0 | 2 | 4 | 1 | 1 | 0 | 1 | 3 | 4 | 1 | 1 | 0 | 
CN(C(=O)OC(C)(C)C)c1cc(-c2cncnc2)nn1C [Compound A14] | 1 | 3 | 3 | 0 | 0 | 1 | 1 | 4 | 4 | 3 | 0 | 1 | 
Cc1nn(-c2cncnc2)cc1N(C)C(=O)NC(C)(C)C [Compound A16] | 1 | 1 | 2 | 1 | 1 | 1 | 1 | 3 | 4 | 2 | 0 | 1 | 
CN(C(=O)NC(C)(C)C)c1cn(-c2cncc(F)c2)nc1C(F)(F)F [Compound A19] | 0 | 0 | 2 | 1 | 0 | 0 | 1 | 1 | 4 | 1 | 0 | 0 | 
COC(=O)N(C)c1cn(-c2cncc(F)c2)nc1C(F)(F)F [Compound A27] | 0 | 0 | 2 | 0 | 0 | 0 | 0 | 3 | 4 | 2 | 1 | 1 | 
